Data published in patent publication US20150087627A1, “COMBINATION OF KINASE INHIBITORS AND USES THEREOF” (Intellikine LLC, priority 2011, published 2015).
Like-named read-outs stand apart in the source and are kept apart here.

Assays:
PI3K α (p110α/p85α) = target: T1, PI3K α (p110α/p85α) (Homo sapiens, UniProt P42336); test: PI 3-Kinase (human) HTRF assay, PI3K α; type: biochemical
T1 construct: purchased Upstate / Millipore Corporation

PC3 = PC3 proliferation; type: cell-based; conditions: Homo sapiens, PC-3
PI3K γ (p110γ) = target: T2, PI3K γ (p110γ) (Homo sapiens, UniProt P48736); test: PI 3-Kinase (human) HTRF assay, PI3K γ; type: biochemical
T2 construct: purchased Upstate / Millipore Corporation
Protocol: Briefly, the assay is a time resolved FRET assay that indirectly measures PIP3 product formed by the activity of a PI3-K. The kinase reaction is performed in a microtiter plate (e.g., a 384 well microtiter plate). The total reaction volume is approximately 20 ul per well. In the first step, each well receives 2 ul of test compound in 20% dimethylsulphoxide resulting in a 2% DMSO final concentration. […] The plate is sealed and incubated for 15 minutes at room temperature. […] The plate is sealed and incubated for 1 hour at room temperature. The reaction is stopped by adding 5 ul of Stop Solution per well and then 5 ul of Detection Mix is added per well. The plate is sealed, incubated for 1 hour at room temperature, and then read on an appropriate plate reader. Data is analyzed and IC50s are generated using GraphPad Prism 5.

PI3K δ = target: T3, PI3K δ (Homo sapiens, UniProt O00329); test: PI 3-Kinase (human) HTRF assay, PI3K δ; type: biochemical; conditions: read-out: PI3K δ IC50
T3 construct: purchased Upstate / Millipore Corporation

PI3K β (p110β/p85α) = target: T4, PI3K β (p110β/p85α) (Homo sapiens, UniProt P42338); test: PI 3-Kinase (human) HTRF assay, PI3K β; type: biochemical
T4 construct: purchased Upstate / Millipore Corporation

mTOR = target: T5, mTOR (Homo sapiens, UniProt P42345); test: mTOR kinase inhibition assay (radiometric or LanthaScreen TR-FRET); type: biochemical; conditions: read-out: mTORC IC50
T5 construct: purchased Invitrogen
Protocol: The cross-activity or lack thereof of one or more compounds of the present invention against mTor can be measured according to any procedures known in the art or methods disclosed below.
The compounds described herein can be tested against recombinant mTOR (Invitrogen) in an assay containing 50 mM HEPES, pH 7.5, 1 mM EGTA, 10 mM MgCl2, 2.5 mM, 0.01% Tween, 10 μM ATP (2.5 μCi of μ-32P-ATP), and 3 μg/mL BSA. Rat recombinant PHAS-1/4EBP1 (Calbiochem; 2 mg/mL) is used as a substrate. Reactions are terminated by spotting onto nitrocellulose, which is washed with 1M NaCl/1% phosphoric acid (approximately 6 times, 5-10 minutes each). Sheets are dried and the transferred radioactivity quantitated by phosphorimaging.
For instance, one can use Invitrogen's LanthaScreen™ Kinase assay to test the inhibitors of mTOR disclosed herein. This assay is a time resolved FRET platform that measures the phosphorylation of GFP labeled 4EBP1 by mTOR kinase. The kinase reaction is performed in a white 384 well microtiter plate. The total reaction volume is 20 ul per well and the reaction buffer composition is 50 mM HEPES pH7.5, 0.01% Polysorbate 20, 1 mM EGTA, 10 mM MnCl2, and 2 mM DTT. In the first step, each well receives 2 ul of test compound in 20% dimethylsulphoxide resulting in a 2% DMSO final concentration. […] The plate is sealed and incubated for 1 hour at room temperature. […] The plate is sealed, incubated for 1 hour at room temperature, and then read on a plate reader set up for LanthaScreen™ TR-FRET. Data is analyzed and IC50s are generated using GraphPad Prism 5.

T47D = T47D proliferation; type: cell-based; conditions: Homo sapiens; T47D cell line
MDA-MB-361 = MDA-MB-361 proliferation; type: cell-based
[1] = PC3 cell line (compounds before 438), read-out: PC3 proliferation (nM)*
[2] = Table 2 (mTor inhibitor compounds), PC3, read-out: PC3 proliferation
[3] = Table 4 (PI3K α inhibitors), read-out: PI3K α IC50
[4] = Table 4 (PI3K α inhibitors), read-out: PI3K γ IC50
[5] = Table 4 (PI3K α inhibitors), read-out: PI3K β IC50

T3 sequence (O00329 whole entry): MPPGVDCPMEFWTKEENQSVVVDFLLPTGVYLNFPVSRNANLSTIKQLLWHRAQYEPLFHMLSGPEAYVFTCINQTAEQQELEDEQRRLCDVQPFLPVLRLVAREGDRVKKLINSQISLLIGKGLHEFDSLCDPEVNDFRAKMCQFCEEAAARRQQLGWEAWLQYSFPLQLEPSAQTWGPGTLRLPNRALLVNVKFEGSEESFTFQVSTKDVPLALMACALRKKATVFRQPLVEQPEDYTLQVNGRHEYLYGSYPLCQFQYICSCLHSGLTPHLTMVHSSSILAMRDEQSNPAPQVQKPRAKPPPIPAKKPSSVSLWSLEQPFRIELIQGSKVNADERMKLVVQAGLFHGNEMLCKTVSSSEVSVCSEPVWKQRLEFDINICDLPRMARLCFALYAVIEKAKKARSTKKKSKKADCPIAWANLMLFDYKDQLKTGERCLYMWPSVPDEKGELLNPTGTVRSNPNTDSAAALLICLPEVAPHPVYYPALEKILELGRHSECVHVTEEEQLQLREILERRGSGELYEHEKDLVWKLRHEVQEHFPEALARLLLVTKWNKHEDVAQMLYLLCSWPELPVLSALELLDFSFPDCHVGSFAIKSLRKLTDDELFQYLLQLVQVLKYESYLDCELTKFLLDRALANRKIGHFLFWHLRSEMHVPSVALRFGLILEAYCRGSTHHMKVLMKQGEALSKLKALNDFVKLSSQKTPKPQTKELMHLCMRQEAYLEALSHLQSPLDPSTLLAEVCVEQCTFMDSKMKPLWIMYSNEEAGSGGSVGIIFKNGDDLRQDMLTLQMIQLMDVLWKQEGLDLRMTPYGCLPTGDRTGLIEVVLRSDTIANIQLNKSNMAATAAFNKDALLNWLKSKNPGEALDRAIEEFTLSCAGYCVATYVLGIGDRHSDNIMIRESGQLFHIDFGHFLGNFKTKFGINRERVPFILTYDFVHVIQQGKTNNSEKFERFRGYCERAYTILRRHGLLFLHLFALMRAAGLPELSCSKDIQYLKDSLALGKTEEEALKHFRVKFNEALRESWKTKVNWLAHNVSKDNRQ
T3 sequence (P27986 whole entry partner): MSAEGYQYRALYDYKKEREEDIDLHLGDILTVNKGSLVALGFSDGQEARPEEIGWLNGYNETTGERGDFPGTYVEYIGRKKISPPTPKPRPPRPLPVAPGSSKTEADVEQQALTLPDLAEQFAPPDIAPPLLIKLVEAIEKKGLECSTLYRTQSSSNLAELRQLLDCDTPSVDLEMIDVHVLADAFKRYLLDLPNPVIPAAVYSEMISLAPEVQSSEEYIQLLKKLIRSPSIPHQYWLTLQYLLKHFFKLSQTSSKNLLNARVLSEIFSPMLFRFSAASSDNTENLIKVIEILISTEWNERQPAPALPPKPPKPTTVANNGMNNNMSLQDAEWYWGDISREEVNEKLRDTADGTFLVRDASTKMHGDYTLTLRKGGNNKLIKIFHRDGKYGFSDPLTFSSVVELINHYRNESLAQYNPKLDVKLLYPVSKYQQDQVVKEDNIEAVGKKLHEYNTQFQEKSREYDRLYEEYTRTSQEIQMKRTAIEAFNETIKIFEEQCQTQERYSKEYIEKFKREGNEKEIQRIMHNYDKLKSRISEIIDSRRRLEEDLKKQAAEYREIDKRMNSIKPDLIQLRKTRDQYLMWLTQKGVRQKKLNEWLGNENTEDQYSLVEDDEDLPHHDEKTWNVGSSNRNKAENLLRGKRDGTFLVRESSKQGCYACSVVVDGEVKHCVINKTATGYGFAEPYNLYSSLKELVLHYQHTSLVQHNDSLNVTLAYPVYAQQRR
T1 sequence (P42336 whole entry): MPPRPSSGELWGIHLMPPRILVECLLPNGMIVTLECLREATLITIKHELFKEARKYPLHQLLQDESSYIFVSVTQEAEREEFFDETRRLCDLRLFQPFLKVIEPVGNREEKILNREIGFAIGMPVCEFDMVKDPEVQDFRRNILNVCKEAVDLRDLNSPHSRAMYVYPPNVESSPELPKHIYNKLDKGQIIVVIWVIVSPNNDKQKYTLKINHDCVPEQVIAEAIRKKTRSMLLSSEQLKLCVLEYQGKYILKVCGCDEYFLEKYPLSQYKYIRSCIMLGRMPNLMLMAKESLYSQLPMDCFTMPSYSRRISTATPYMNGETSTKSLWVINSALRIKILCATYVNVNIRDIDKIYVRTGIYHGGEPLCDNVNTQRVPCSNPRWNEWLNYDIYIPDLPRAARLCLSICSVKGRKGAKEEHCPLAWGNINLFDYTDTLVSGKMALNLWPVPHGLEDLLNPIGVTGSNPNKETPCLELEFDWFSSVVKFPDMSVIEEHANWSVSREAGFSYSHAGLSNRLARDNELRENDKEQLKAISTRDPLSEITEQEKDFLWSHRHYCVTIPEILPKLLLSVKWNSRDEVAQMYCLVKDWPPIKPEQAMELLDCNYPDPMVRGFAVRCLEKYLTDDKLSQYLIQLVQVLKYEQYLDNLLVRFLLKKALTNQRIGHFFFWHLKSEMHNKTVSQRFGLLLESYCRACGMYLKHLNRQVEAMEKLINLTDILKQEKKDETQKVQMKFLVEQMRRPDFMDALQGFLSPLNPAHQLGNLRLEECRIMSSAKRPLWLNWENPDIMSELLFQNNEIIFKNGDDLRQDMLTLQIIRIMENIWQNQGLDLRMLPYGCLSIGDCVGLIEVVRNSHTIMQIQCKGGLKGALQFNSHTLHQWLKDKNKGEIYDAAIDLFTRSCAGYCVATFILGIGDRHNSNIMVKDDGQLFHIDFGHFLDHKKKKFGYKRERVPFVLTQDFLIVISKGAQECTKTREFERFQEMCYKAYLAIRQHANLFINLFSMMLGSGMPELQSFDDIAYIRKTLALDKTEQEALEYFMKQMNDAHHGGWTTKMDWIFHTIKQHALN
T1 sequence (P27986 whole entry partner): as the sequence (P27986 whole entry partner) above
T2 sequence (P48736 whole entry): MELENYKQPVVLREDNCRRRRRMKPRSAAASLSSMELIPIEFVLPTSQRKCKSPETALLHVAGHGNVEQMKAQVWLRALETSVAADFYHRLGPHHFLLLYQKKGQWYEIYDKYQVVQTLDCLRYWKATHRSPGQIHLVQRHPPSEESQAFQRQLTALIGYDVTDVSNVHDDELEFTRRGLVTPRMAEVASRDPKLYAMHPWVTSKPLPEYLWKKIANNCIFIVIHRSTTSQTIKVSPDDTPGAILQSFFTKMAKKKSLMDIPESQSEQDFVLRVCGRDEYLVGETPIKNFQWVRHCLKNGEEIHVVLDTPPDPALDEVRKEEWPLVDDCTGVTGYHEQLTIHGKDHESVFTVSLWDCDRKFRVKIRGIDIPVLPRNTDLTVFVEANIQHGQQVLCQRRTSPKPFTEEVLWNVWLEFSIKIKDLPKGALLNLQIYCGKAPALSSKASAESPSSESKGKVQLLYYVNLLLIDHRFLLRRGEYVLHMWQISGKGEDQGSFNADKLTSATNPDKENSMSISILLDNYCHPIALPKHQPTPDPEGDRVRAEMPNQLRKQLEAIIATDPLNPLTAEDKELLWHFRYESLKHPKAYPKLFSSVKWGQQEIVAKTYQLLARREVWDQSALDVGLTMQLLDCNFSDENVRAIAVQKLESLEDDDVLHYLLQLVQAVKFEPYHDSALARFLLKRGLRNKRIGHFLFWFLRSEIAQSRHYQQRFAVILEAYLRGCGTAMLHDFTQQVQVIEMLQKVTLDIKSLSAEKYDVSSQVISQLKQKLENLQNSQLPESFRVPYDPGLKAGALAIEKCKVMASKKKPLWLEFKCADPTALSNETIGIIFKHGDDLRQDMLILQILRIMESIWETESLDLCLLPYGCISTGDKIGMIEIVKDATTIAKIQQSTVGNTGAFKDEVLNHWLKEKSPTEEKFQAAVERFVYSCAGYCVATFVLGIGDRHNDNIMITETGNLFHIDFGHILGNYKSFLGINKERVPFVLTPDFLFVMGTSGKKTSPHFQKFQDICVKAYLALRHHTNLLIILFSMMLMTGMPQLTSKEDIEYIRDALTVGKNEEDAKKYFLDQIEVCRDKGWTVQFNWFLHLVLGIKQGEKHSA
T4 sequence (P42338 whole entry): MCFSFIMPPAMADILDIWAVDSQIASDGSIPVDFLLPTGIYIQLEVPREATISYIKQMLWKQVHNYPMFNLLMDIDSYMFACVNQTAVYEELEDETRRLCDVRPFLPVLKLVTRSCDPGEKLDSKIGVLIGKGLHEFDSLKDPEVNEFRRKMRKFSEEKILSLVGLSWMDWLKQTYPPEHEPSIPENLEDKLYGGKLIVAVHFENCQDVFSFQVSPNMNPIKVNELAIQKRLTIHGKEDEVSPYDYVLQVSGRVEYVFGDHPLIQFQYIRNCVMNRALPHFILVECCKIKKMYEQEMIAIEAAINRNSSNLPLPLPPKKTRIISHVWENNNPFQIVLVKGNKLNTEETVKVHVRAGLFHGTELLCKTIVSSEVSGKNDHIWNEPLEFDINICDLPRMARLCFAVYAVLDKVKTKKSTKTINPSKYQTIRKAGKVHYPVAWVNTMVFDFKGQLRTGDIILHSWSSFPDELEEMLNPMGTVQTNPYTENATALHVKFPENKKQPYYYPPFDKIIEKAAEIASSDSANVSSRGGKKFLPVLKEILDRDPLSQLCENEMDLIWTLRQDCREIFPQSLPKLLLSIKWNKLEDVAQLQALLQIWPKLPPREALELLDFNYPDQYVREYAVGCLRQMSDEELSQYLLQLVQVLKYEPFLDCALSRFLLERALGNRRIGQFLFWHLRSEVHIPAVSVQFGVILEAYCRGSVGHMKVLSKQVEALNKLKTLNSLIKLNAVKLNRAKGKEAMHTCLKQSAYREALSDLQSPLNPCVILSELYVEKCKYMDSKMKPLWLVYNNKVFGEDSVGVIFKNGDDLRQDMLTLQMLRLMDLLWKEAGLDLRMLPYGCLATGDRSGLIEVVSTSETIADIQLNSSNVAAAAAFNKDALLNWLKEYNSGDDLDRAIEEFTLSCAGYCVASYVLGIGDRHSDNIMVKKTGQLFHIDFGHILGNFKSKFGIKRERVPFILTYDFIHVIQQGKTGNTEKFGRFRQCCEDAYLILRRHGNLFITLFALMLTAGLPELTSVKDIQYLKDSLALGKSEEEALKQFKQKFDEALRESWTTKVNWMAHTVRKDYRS
T4 sequence (P27986 whole entry partner): as the sequence (P27986 whole entry partner) above

SMILES | IC50 (PI3K α (p110α/p85α); read-out: PI3K α IC50) [nM] | IC50 (PI3K γ (p110γ); read-out: PI3K γ IC50) [nM] | IC50 (PI3K δ) [nM] | IC50 (PI3K β (p110β/p85α); read-out: PI3K β IC50) [nM] | IC50 (mTOR) [nM] | IC50 (T47D) [nM] | other results
CC(=O)Nc1nc2ccc(-c3ccc4nccc(-c5ccncc5)c4c3)cc2s1 [Compound 2] | < 1000 | < 1000 | > 10000 | > 10000 | > 10000 |  | IC50 (PC3; [1]): < 10000 nM
Nc1nc2ccc(-c3ccc4nccc(-c5ccncc5)c4c3)cc2o1 [Compound 4] | < 100 |  | < 100 | < 100 | < 1000 |  | IC50 (PC3; [1]): < 100 nM
Nc1nc2cc(-c3ccc4ncc(-c5ccncc5)n4c3)ccc2o1 [Compound 6] | < 100 |  | < 1000 | < 10000 | < 10000 | < 1000 | IC50 (PC3; [1]): < 10000 nM
Cn1c(=O)n(-c2ccc(C(C)(C)C#N)cc2)c2c3cc(-c4ccc5oc(N)nc5c4)ccc3ncc21 [Compound 7] | < 100 | < 100 | < 100 | < 100 | < 100 |  | IC50 (PC3; [1]): < 100 nM
Nc1nc2cc(-c3ccc4ncc(-c5ccncc5)n4n3)ccc2o1 [Compound 10] | < 100 | < 100 |  | < 1000 | < 1000 | < 1000 | IC50 (PC3; [1]): < 1000 nM
Nc1nc2cc(-c3ccc4ncn(-c5ccccc5)c4c3)ccc2o1 [Compound 11] | < 100 |  |  | < 10000 | > 10000 |  | IC50 (PC3; [1]): > 10000 nM
CC(C)n1nc(-c2cc3ccc(C#N)cc3[nH]2)c2c(N)ncnc21 [Compound 24] |  |  |  |  |  |  | IC50 (PC3; [2]): > 500 nM
CC(C)n1nc(-c2cc3ccc(C(N)=O)cc3[nH]2)c2c(N)ncnc21 [Compound 25] |  |  |  |  |  |  | IC50 (PC3; [2]): > 500 nM
CN1CCC(Nc2ncnc3ccc(-c4ccc5oc(N)nc5c4)cc23)CC1 [Compound 35] | < 100 | < 100 | < 100 |  | < 10000 | < 10000 | 
CN1CCC(n2cnc3ccc(-c4ccc5oc(N)nc5c4)cc3c2=O)CC1 [Compound 36] | < 100 | > 10000 | < 10000 |  | < 10000 | < 10000 | 
Cn1cc(-c2cnc3ccc(-c4ccc5oc(N)nc5c4)cn23)cn1 [Compound 41] | < 100 |  | < 1000 |  | < 10000 | < 10000 | 
CN1CCN(c2ccc(-c3cnc4ccc(-c5ccc6oc(N)nc6c5)cn34)cn2)CC1 [Compound 42] | < 100 | < 1000 | < 1000 |  | > 10000 | < 10000 | 
Nc1nc2cc(-c3ccc4ncc(OC5CCOCC5)nc4c3)ccc2o1 [Compound 49] | < 100 | < 1000 | < 10000 |  | < 10000 | < 10000 | 
Nc1nc2cc(-c3ccc4ncc(-c5ccc6nc(N)oc6c5)n4c3)ccc2o1 [Compound 50] | < 100 | < 100 | < 10000 |  | > 10000 | < 10000 | 
Nc1nc2cc(-c3ccc4ncc(C(=O)N5CCOCC5)n4c3)ccc2o1 [Compound 54] |  |  | < 10000 | < 10000 | < 10000 | < 10000 | 
Cc1nc2ccc(-c3ccc4oc(N)nc4c3)nn2c1-c1ccncc1 [Compound 56] | < 100 | < 100 | > 10000 | < 1000 | < 1000 | < 10000 | 
Nc1nc2cc(-c3ccc4ncc(N5CCOCC5)nc4c3)ccc2o1 [Compound 64] | < 100 | < 100 | > 10000 | < 1000 | < 10000 | < 10000 | 
CN1CCN(c2cnc3ccc(-c4ccc5oc(N)nc5c4)cc3n2)CC1 [Compound 65] | < 100 | < 1000 | < 10000 | < 100 | > 10000 | < 10000 | 
CN1CCC(N(C)c2cnc3ccc(-c4ccc5oc(N)nc5c4)cc3n2)CC1 [Compound 151] |  |  | < 1000 |  |  | < 10000 | IC50 (PI3K α (p110α/p85α)): < 100 nM; IC50 (PI3K γ (p110γ); PI3K γ IC50 (nM)): < 10000 nM; IC50 (PI3K β (p110β/p85α); PI3K β IC50 (nM)): < 10000 nM
Nc1nc2cc(-c3ccc4ncc(N5CCCCC5)nc4c3)ccc2o1 [Compound 175] | < 100 | < 10000 | > 10000 | > 10000 |  | > 10000 | 
Cc1cn(-c2cnc3ccc(-c4ccc5oc(N)nc5c4)cc3n2)cn1 [Compound 177] | < 100 | < 1000 | > 10000 | > 10000 |  | > 10000 | 
Nc1nc2cc(-c3ccc4ncc(C(=O)Nc5cccnc5)n4c3)ccc2o1 [Compound 190] | < 100 | < 100 | < 1000 | > 10000 |  | > 10000 | 
COc1ncc(-c2ccc3ncc(C(=O)N4CCOCC4)n3c2)cc1NS(=O)(=O)c1cccnc1 [Compound 462] | < 100 | < 100 | < 100 | < 100 |  |  | IC50 (MDA-MB-361; Homo sapiens, MDA-MB-361, Starting with compound 438, proliferation data was obtained using an MDA-MB-361 cell line, read-out: PC3 proliferation (nM)*): < 1000 nM
Nc1nc2cc(-c3ccc4ncc(N5CCNC(=O)C5)cc4n3)ccc2o1 [Compound 580] |  |  |  |  |  |  | IC50 (PI3K α (p110α/p85α); [3]): < 100 nM; IC50 (PI3K γ (p110γ); [4]): < 100 nM; IC50 (MDA-MB-361; Homo sapiens, MDA-MB-361, Table 4 (PI3K α inhibitors), MDA-MB-361, read-out: MDA-MB-361 proliferation (nM)*): < 1000 nM; IC50 (PI3K δ; Table 4 (PI3K α inhibitors)): < 10000 nM; IC50 (PI3K β (p110β/p85α); [5]): < 1000 nM
C[C@H]1CN(C2CN(c3cnc4ccc(-c5ccc6oc(N)nc6c5)nc4n3)C2)CCN1C [Compound 606] |  |  |  |  |  |  | IC50 (PI3K α (p110α/p85α); [3]): < 100 nM; IC50 (PI3K γ (p110γ); [4]): < 10000 nM; IC50 (MDA-MB-361; Table 4 (PI3K α inhibitors), MDA-MB-361, read-out: MDA-MB-361 proliferation (nM)*): < 1000 nM; IC50 (PI3K δ; Table 4 (PI3K α inhibitors)): < 1000 nM; IC50 (PI3K β (p110β/p85α); [5]): < 10000 nM; IC50 (mTOR; Table 4 (PI3K α inhibitors)): > 10000 nM
